Our source for the IC50 values is patent publication US20230081426A1, “COMPOUNDS AND METHODS FOR KRAS MODULATION AND INDICATIONS THEREFOR” (Plexxikon Inc., priority 2020, published 2023).

The target in assay [1] is T1, G12V-mutant human KRAS (amino acid residues 1-188) (Homo sapiens, UniProt P01116, G12V).
T1 construct: G12V-mutant human KRAS (amino acid residues 1-188) with FLAG tag was purified from E. coli; made in house; host or cells: E. coli
The experiment in a line: KRAS Binding Competition Assay (AlphaScreen; biotinylated KRpep-2d analogue), G12V. As to conditions: geometric mean, read-out: KRAS GMean IC50 (uM) MUTATION: G12V. For orientation: Alpha assays give light when donor and acceptor beads are brought close together.

For assay [2], the target named is T2, G12D-mutant human KRAS (amino acid residues 1-188) (Homo sapiens, UniProt P01116, G12D).
T2 construct: G12D or G12C-mutant human KRAS (amino acid residues 1-188) with FLAG tag; made in house; host or cells: E. coli
The experiment in a line: KRAS Binding Disruption Assay (AlphaScreen; biotinylated KRpep-2d analogue or RAF1-RBD), G12D. As to conditions: KRAS G12D; geometric mean; read-out: KRAS GMean IC50 (uM) MUTATION: G12D. In a few lines: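 Mutant KRAS (5-20 nM) incubated 1 h at 25° C with test compound and 5-20 nM biotinylated KRpep-2d analogue or RAF1-RBD in 20 mM HEPES pH 7.5, 100 mM NaCl, 5 mM MgCl2, 0.01% Tween-20, 0.01% BSA.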

One may read the IC50 as the point on the concentration scale where inhibition reaches its midpoint.

With `Cc1n[nH]c(C)c1-c1ccc2c(N3C[C@H]4CC[C@@H](C3)N4)nc(OC[C@@H]3CCCN3C)nc2c1` [P-0176, 4-((1R,5S)-3,8-diazabicyclo[3.2.1]octan-3-yl)-7-(3,5-dimethyl-1H-pyrazol-4-yl)-2-(((S)-1-methylpyrrolidin-2-yl)methoxy)quinazoline], the IC50 in assay [1] and in assay [2] was 100 to 1000 µM in each case.
In the case of `CN1CCC[C@H]1COc1nc(N2C[C@H]3CC[C@@H](C2)N3)c2ccc(-c3ccc(Cl)c(N)c3)cc2n1` [P-0177, 5-(4-((1R,5S)-3,8-diazabicyclo[3.2.1]octan-3-yl)-2-(((S)-1-methylpyrrolidin-2-yl)methoxy)quinazolin-7-yl)-2-chloroaniline], the IC50 in assay [1] and in assay [2] was 10 to 100 µM in each case.
As to `CN1CCC[C@H]1COc1nc(N2C[C@H]3CC[C@@H](C2)N3)c2ccc(-c3cnn4ccccc34)cc2n1` [P-0178, 4-((1R,5S)-3,8-diazabicyclo[3.2.1]octan-3-yl)-2-(((S)-1-methylpyrrolidin-2-yl)methoxy)-7-(pyrazolo[1,5-a]pyridin-3-yl)quinazoline], the IC50 in assay [1] and in assay [2] was 100 to 1000 µM each time.
Turning to `CN1CCC[C@H]1COc1nc(N2C[C@H]3CC[C@@H](C2)N3)c2ccc(-c3cc(O)cc(C(F)(F)F)c3)cc2n1` [P-0179, 3-(4-((1R,5S)-3,8-diazabicyclo[3.2.1]octan-3-yl)-2-(((S)-1-methylpyrrolidin-2-yl)methoxy)quinazolin-7-yl)-5-(trifluoromethyl)phenol], the IC50 in assay [1] was in the range of 100 to 1000 µM; in assay [2], 10 to 100 µM.
On to `CN1CCC[C@H]1COc1nc(N2C[C@H]3CC[C@@H](C2)N3)c2ccc(-c3cnc(N)nc3C(F)(F)F)cc2n1` [P-0180, 5-(4-((1R,5S)-3,8-diazabicyclo[3.2.1]octan-3-yl)-2-(((S)-1-methylpyrrolidin-2-yl)methoxy)quinazolin-7-yl)-4-(trifluoromethyl)pyrimidin-2-amine], for which the half-inhibitory concentration (IC50) in assay [1] fell in the range of 100 to 1000 µM; in assay [2] it was 10 to 100 µM.
Taken in the same sequence, the figures for `CN1CCC[C@H]1COc1nc(N2C[C@H]3CC[C@@H](C2)N3)c2ccc(-c3ccc4oc(N)nc4c3)cc2n1` [P-0181, 5-(4-((1R,5S)-3,8-diazabicyclo[3.2.1]octan-3-yl)-2-(((S)-1-methylpyrrolidin-2-yl)methoxy)quinazolin-7-yl)benzo[d]oxazol-2-amine] were 10 to 100 µM and 10 to 100 µM.
Taken in the same sequence, the figures for `CN1CCC[C@H]1COc1nc(N2C[C@H]3CC[C@@H](C2)N3)c2ccc(-c3ccc(CO)s3)cc2n1` [P-0182, (5-(4-((1R,5S)-3,8-diazabicyclo[3.2.1]octan-3-yl)-2-(((S)-1-methylpyrrolidin-2-yl)methoxy)quinazolin-7-yl)thiophen-2-yl)methanol] were 100 to 1000 µM and 100 to 1000 µM.
For `Cc1n[nH]c2cc(-c3ccc4c(N5C[C@H]6CC[C@@H](C5)N6)nc(OC[C@@H]5CCCN5C)nc4c3)ccc12` [P-0183, 4-((1R,5S)-3,8-diazabicyclo[3.2.1]octan-3-yl)-7-(3-methyl-1H-indazol-6-yl)-2-(((S)-1-methylpyrrolidin-2-yl)methoxy)quinazoline] the same measures were 10 to 100 µM and 100 to 1000 µM.
As for `CN1CCC[C@H]1COc1nc(N2C[C@H]3CC[C@@H](C2)N3)c2ccc(-c3c(F)ccc4[nH]ccc34)cc2n1` [P-0184, 4-((1R,5S)-3,8-diazabicyclo[3.2.1]octan-3-yl)-7-(5-fluoro-1H-indol-4-yl)-2-(((S)-1-methylpyrrolidin-2-yl)methoxy)quinazoline], the values for the IC50 in assay [1] and in assay [2] were 100 to 1000 µM and 10 to 100 µM, respectively.
Taken in the same sequence, the figures for `CN1C2CCC1(COc1nc(N3C[C@H]4CC[C@@H](C3)N4)c3ccc(-c4cc(O)cc5ccccc45)cc3n1)CC2` [P-0185, 4-(4-((1R,5S)-3,8-diazabicyclo[3.2.1]octan-3-yl)-2-((7-methyl-7-azabicyclo[2.2.1]heptan-1-yl)methoxy)quinazolin-7-yl)naphthalen-2-ol] were 10 to 100 µM and 0.0001 to 10 µM.
With `CN1CCN(CCCC(=O)N2[C@@H]3CC[C@H]2CN(c2nc(OCC45CCCN4CCC5)nc4c(F)c(-c5cc(O)cc6ccccc56)ccc24)C3)CC1` [P-0187, 1-((1R,5S)-3-(8-fluoro-7-(3-hydroxynaphthalen-1-yl)-2-((tetrahydro-1H-pyrrolizin-7a(5H)-yl)methoxy)quinazolin-4-yl)-3,8-diazabicyclo[3.2.1]octan-8-yl)-4-(4-methylpiperazin-1-yl)butan-1-one], the IC50 in assay [1] and in assay [2] was 0.0001 to 10 µM in each case.
As to `O=C(Cc1c[nH]cn1)N1[C@@H]2CC[C@H]1CN(c1nc(OCC34CCCN3CCC4)nc3c(F)c(-c4cc(O)cc5ccccc45)ccc13)C2` [P-0188, 1-((1R,5S)-3-(8-fluoro-7-(3-hydroxynaphthalen-1-yl)-2-((tetrahydro-1H-pyrrolizin-7a(5H)-yl)methoxy)quinazolin-4-yl)-3,8-diazabicyclo[3.2.1]octan-8-yl)-2-(1H-imidazol-4-yl)ethan-1-one], the IC50 in assay [1] and in assay [2] was 0.0001 to 10 µM in each case.
Take `CN1CCC[C@H]1COc1nc(N2[C@@H]3CC[C@H]2CN(C(=O)CC2CCNCC2)C3)c2ccc(-c3cc(O)cc4ccccc34)cc2n1` [P-0189, 1-((1R,5S)-8-(7-(3-hydroxynaphthalen-1-yl)-2-(((S)-1-methylpyrrolidin-2-yl)methoxy)quinazolin-4-yl)-3,8-diazabicyclo[3.2.1]octan-3-yl)-2-(piperidin-4-yl)ethan-1-one]: the half-inhibitory concentration (IC50) in assay [1] and in assay [2] was 10 to 100 µM in each case.
Regarding `CN1CCC[C@H]1COc1nc(N2[C@@H]3CC[C@H]2CN(C(=O)CC2CCCNC2)C3)c2ccc(-c3cc(O)cc4ccccc34)cc2n1` (stereo partly drawn) [P-0190, 1-((1R,5S)-8-(7-(3-hydroxynaphthalen-1-yl)-2-(((S)-1-methylpyrrolidin-2-yl)methoxy)quinazolin-4-yl)-3,8-diazabicyclo[3.2.1]octan-3-yl)-2-(piperidin-3-yl)ethan-1-one], the IC50 in assay [1] and in assay [2] was 10 to 100 µM in each case.
With `CN1CCC[C@H]1COc1nc(N2[C@@H]3CC[C@H]2CN(C(=O)CCC2CCCCN2)C3)c2ccc(-c3cc(O)cc4ccccc34)cc2n1` (stereo partly drawn) [P-0191, 1-((1R,5S)-8-(7-(3-hydroxynaphthalen-1-yl)-2-(((S)-1-methylpyrrolidin-2-yl)methoxy)quinazolin-4-yl)-3,8-diazabicyclo[3.2.1]octan-3-yl)-3-(piperidin-2-yl)propan-1-one], the concentration for half-maximal inhibition (IC50) in assay [1] and in assay [2] was 10 to 100 µM in each case.
For the molecule `CN1CCC[C@H]1COc1nc(N2[C@@H]3CC[C@H]2CN(C(=O)CCC2CCCNC2)C3)c2ccc(-c3cc(O)cc4ccccc34)cc2n1` (stereo partly drawn) [P-0192, 1-((1R,5S)-8-(7-(3-hydroxynaphthalen-1-yl)-2-(((S)-1-methylpyrrolidin-2-yl)methoxy)quinazolin-4-yl)-3,8-diazabicyclo[3.2.1]octan-3-yl)-3-(piperidin-3-yl)propan-1-one], the IC50 in assay [1] and in assay [2] was 10 to 100 µM each time.
As for `CN1CCC[C@H]1COc1nc(N2[C@@H]3CC[C@H]2CN(C(=O)CCC2CCNCC2)C3)c2ccc(-c3cc(O)cc4ccccc34)cc2n1` [P-0193, 1-((1R,5S)-8-(7-(3-hydroxynaphthalen-1-yl)-2-(((S)-1-methylpyrrolidin-2-yl)methoxy)quinazolin-4-yl)-3,8-diazabicyclo[3.2.1]octan-3-yl)-3-(piperidin-4-yl)propan-1-one], the IC50 in assay [1] and in assay [2] was 10 to 100 µM each time.
In the case of `CN1CCC[C@H]1COc1nc(N2[C@@H]3CC[C@H]2CN(C(=O)CCC2CNCCN2)C3)c2ccc(-c3cc(O)cc4ccccc34)cc2n1` (stereo partly drawn) [P-0194, 1-((1R,5S)-8-(7-(3-hydroxynaphthalen-1-yl)-2-(((S)-1-methylpyrrolidin-2-yl)methoxy)quinazolin-4-yl)-3,8-diazabicyclo[3.2.1]octan-3-yl)-3-(piperazin-2-yl)propan-1-one], the half-maximal inhibitory concentration (IC50) in assay [1] and in assay [2] was 10 to 100 µM throughout.
In the case of `CN1CCC[C@H]1COc1nc(N2[C@@H]3CC[C@H]2CN(C(=O)CCCn2ccnc2)C3)c2ccc(-c3cc(O)cc4ccccc34)cc2n1` [P-0195, 1-((1R,5S)-8-(7-(3-hydroxynaphthalen-1-yl)-2-(((S)-1-methylpyrrolidin-2-yl)methoxy)quinazolin-4-yl)-3,8-diazabicyclo[3.2.1]octan-3-yl)-4-(1H-imidazol-1-yl)butan-1-one], the IC50 in assay [1] and in assay [2] was 10 to 100 µM each time.
For `CN1CCC[C@H]1COc1nc(N2[C@@H]3CC[C@H]2CN(C(=O)CC2CCCC2O)C3)c2ccc(-c3cc(O)cc4ccccc34)cc2n1` (stereo partly drawn) [P-0196, 2-(2-hydroxycyclopentyl)-1-((1R,5S)-8-(7-(3-hydroxynaphthalen-1-yl)-2-(((S)-1-methylpyrrolidin-2-yl)methoxy)quinazolin-4-yl)-3,8-diazabicyclo[3.2.1]octan-3-yl)ethan-1-one], the IC50 in assay [1] and in assay [2] was 10 to 100 µM in each case.
Regarding `N#Cc1ccc(CCc2nc(N3[C@@H]4CC[C@H]3CNC4)c3ccc(-c4cc(O)cc5ccccc45)cc3n2)cc1` [P-0197, 4-(2-(4-((1R,5S)-3,8-diazabicyclo[3.2.1]octan-8-yl)-7-(3-hydroxynaphthalen-1-yl)quinazolin-2-yl)ethyl)benzonitrile], the values for the half-maximal inhibitory concentration (IC50) in assay [1] and in assay [2] were 10 to 100 µM and 0.0001 to 10 µM, respectively.
Taken in the same sequence, the figures for `O=C(O)CCc1nc(N2[C@@H]3CC[C@H]2CNC3)c2ccc(-c3cc(O)cc4ccccc34)cc2n1` [P-0198, 3-(4-((1R,5S)-3,8-diazabicyclo[3.2.1]octan-8-yl)-7-(3-hydroxynaphthalen-1-yl)quinazolin-2-yl)propanoic acid] were 10 to 100 µM and 0.0001 to 10 µM.
